The structures appear in SMILES notation.

This test addresses Cannabinoid receptor 2 (Homo sapiens, UniProt P34972). Description: cAMP Assay: CHO cells expressing human CB1 or CB2 receptors are seeded 17-24 hours prior to the experiment 50.000 cells per well in a black 96 well plate with flat clear bottom (Corning Costar #3904) in DMEM (Invitrogen No. 31331), 1×HT supplement, with 10% fetal calf serum and incubated at 5% CO2 and 37° C. in a humidified incubator. The growth medium was exchanged with Krebs Ringer Bicarbonate buffer with 1 mM IBMX and incubated at 30° C. for 30 min. Compounds were added to a final assay volume of 100 μl and incubated for 30 min at 30° C. Using the cAMP-Nano-TRF detection kit the assay (Roche Diagnostics) was stopped by the addition of 50 μl lysis reagent (Tris, NaCl, 1.5% Triton X100, 2.5% NP40, 10% NaN3) and 50 μl detection solutions (20 μM mAb Alexa700-cAMP 1:1, and 48 μM Ruthenium-2-AHA-cAMP) and shaken for 2 h at room temperature. The time-resolved energy transfer is measured by a TRF reader (Evotec Technologies GmbH), equipped with a ND:YAG laser as excitation source. The plate is measured twice with the excitation at 355 nm and at the emission with a delay of 100 ns and a gate of 100 ns, total exposure time 10 s at 730 (bandwidth 30 nm) or 645 nm (bandwidth 75 nm), respectively. […].

Sequence of Cannabinoid receptor 2 (P34972 whole entry): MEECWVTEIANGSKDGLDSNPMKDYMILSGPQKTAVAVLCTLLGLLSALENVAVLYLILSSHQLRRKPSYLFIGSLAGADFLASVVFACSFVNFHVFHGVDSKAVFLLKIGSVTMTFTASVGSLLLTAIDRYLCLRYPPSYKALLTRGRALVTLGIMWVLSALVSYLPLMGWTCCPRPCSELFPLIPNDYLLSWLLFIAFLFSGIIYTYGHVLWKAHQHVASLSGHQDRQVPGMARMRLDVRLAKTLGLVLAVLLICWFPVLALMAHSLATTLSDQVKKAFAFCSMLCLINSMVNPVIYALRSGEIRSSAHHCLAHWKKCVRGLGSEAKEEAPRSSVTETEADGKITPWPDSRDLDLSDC

On to `CC(=O)N[C@H]1CCN(c2nc(O[C@@H](C)C(F)(F)F)nc3c2nnn3Cc2ccccc2C(F)(F)F)C1`, for which the EC50 turned out to be 0.0789 µM.

In general, EC50 refers to the concentration at which the effect is half-maximal. Read a high EC50 as weaker potency.

The record behind these values is ChEMBL document CHEMBL5725892, “Triazolo[4,5-D]pyrimidine derivatives” (2017).
